According to US20230322789A1, “PYRAZOLOPYRIDAZINONE COMPOUND, AND PHARMACEUTICAL COMPOSITION AND USE THEREOF” (BroadenBio Co., Ltd., priority 2020, published 2023):
Where a name gives a salt, the structure may show the parent alone.

What was measured:
Human Jurkat-E6-1 cells = test: Measurement of IL-2 secretion of Jurkat cells by ELISA; assay type: cell-based; details: Homo sapiens, Jurkat E6.1; test compound 3.0 μM; anti-CD3/anti-CD28 stimulation 24 hours; read-out: Percentage of the amount of IL-2 secreted from compound treated/DMSO-treated cells
Procedure: 2. Measurement of IL-2 Secretion of Jurkat Cells by ELISA
Human Jurkat-E6-1 cells were incubated with various concentrations of test compounds for 30 minutes in a humidified incubator at 37° C. and […]. Cells were transferred to cell culture plates pre-coated with anti-human CD3 antibody, then soluble anti-human CD28 antibody was added, and cells were stimulated for 24 hours at 37° C. and 5% CO2 in a humidified incubator. The cell culture medium was collected by centrifugation, and was then transferred to a 96-well transparent microtiter plate (Thermo) pre-coated with anti-human IL-2 antibody, incubated at room temperature for 2 hours, and gently shaken, washed with washing buffer for 4 times, and then followed the ELISA MAX Deluxe Set Human IL-2 (BioLegend) kit procedure, used a microplate reader (Molecular Device, i3X) to read the GD value. The best standard curve was selected by the microplate reader application software, and the corresponding concentration was calculated according to the GD value of the standard. Results are expressed as a percentage of the amount of IL-2 secreted from compound-treated/DMSO-treated cells.

HPK1 = HPK1 (Homo sapiens (Human), UniProt Q92918); test: HPK1 kinase activity inhibition test (ADP-Glo, luminescence); assay type: biochemical; details: HPK1 5 nM, ATP 2 μM, read-out: IC50, inhibitory effects of compounds on HPK1 kinase activity
Sequence of HPK1 (Q92918 whole entry): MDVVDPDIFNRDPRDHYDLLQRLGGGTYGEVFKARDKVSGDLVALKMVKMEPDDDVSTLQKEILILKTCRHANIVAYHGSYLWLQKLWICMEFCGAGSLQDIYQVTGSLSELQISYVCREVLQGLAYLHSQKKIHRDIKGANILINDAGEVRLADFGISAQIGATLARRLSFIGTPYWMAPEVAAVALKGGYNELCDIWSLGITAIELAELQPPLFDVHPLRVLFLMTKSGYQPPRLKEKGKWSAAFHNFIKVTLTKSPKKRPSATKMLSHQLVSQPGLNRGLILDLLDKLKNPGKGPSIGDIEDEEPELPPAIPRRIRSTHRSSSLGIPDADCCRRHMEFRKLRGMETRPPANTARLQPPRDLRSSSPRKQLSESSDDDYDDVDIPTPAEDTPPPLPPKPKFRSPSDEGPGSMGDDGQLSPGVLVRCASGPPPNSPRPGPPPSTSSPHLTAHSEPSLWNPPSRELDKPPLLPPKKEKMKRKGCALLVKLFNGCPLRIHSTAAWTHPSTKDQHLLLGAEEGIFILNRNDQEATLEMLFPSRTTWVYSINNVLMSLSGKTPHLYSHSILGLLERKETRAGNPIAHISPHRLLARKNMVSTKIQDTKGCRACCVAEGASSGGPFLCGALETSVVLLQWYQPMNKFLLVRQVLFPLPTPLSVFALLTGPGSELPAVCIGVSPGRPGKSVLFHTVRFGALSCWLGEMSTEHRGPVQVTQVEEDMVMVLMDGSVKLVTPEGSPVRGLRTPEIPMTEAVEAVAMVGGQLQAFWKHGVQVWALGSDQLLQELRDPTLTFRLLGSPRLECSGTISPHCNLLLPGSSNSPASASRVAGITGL
Method in brief: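 HPK1 autophosphorylation was run without added substrate. Kinase and compound were preincubated 10 min at 25° C., then ATP was added for 60 min at 25° C. ADP formed was detected by ADP-Glo luminescence, and IC50 was taken from a four-parameter nonlinear fit.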

Row | Structure (SMILES) | activity at 3 µM (Human Jurkat-E6-1 cells) [%] | IC50 (HPK1) [nM]
1 | CCc1cccc(F)c1-n1nc2c(-c3ccc(N4CCN(C)CC4)nc3)n[nH]c2cc1=O [Compound 98, 5-(2-ethyl-6-fluorophenyl)-3-(6-(4-methylpiperazin-1-yl)pyrid-3-yl)-1H-pyrazolo[4,3-c]pyridazin-6(5H)-one] | 850 | ≤ 50
2 | Cc1cc(C#N)cc(F)c1-n1nc2c(-c3ccc(N4CCN(C)CC4)nc3)n[nH]c2cc1=O [Compound 99, 3-fluoro-5-methyl-4-(3-(6-(4-methylpiperazin-1-yl)pyrid-3-yl)-6-oxo-1H-pyrazolo[4,3-c]pyridazin-5(6H)-yl)benzonitrile] | 237 | 50 to 500
3 | CN1CCN(c2ccc(-c3n[nH]c4cc(=O)n(-c5c(O)cccc5F)nc34)cn2)CC1 [Compound 100, 5-(2-fluoro-6-hydroxylphenyl)-3-(6-(4-methylpiperazin-1-yl)pyrid-3-yl)-1H-pyrazolo[4,3-c]pyridazin-6(5H)-one hydrobromide] | 284 | 50 to 500
4 | Cc1cccc(F)c1-n1nc2c(-c3ccc(N4CCN(C5COC5)CC4)nc3)n[nH]c2cc1=O [Compound 103] | 716 | ≤ 50
5 | CCS(=O)(=O)N1CCN(c2ccc(-c3n[nH]c4cc(=O)n(-c5c(C)cccc5F)nc34)cn2)CC1 [Compound 105] | 623 | ≤ 50
6 | Cc1cccc(F)c1-n1nc2c(-c3ccc(N4CCN(C5CCOC5)CC4)nc3)n[nH]c2cc1=O (stereo not shown) [Compound 106, 5-(2-fluoro-6-methylphenyl)-3-(6-(4-(tetrahydrofuran-3-yl)piperazin-1-yl)pyrid-3-yl)-1H-pyrazolo[4,3-c]pyridazin-6(5H)-one] | 833 | ≤ 50
7 | CN1CCN(c2ccc(-c3n[nH]c4cc(=O)n(-c5c(F)cccc5Cl)nc34)cn2)CC1 [Compound 107] | 599 | ≤ 50
8 | Cc1cc(Cl)cc(F)c1-n1nc2c(-c3ccc(N4CCN(C)CC4)nc3)n[nH]c2cc1=O [Compound 108] | 312 | 50 to 500
9 | Cc1cccc(F)c1-n1nc2c(-c3ccc(N4CC5CCC(C4)N5C)nc3)n[nH]c2cc1=O [Compound 109, 5-(2-fluoro-6-methylphenyl)-3-(6-(8-methyl-3,8-diazabicyclo[3.2.1]octan-3-yl)pyrid-3-yl)-1H-pyrazolo[4,3-c]pyridazin-6(5H)-one] | 491 | ≤ 50
10 | COc1cccc(F)c1-n1nc2c(-c3cnc(N4CCOCC4)nc3)n[nH]c2cc1=O [Compound 111, 5-(2-fluoro-6-methoxyphenyl)-3-(2-morpholinyl-pyrimidin-5-yl)-1H-pyrazolo[4,3-c]pyridazin-6(5H)-one] | 522 | ≤ 50
11 | CCc1cccc(F)c1-n1nc2c(-c3ccc(N4CCN(CCO)CC4)cc3)n[nH]c2cc1=O [Compound 112, 5-(2-ethyl-6-fluorophenyl)-3-(4-(4-(2-hydroxyethyl)piperazin-1-yl)phenyl)-1H-pyrazolo[4,3-c]pyridazin-6(5H)-one] | 703 | ≤ 50
12 | COc1cccc(F)c1-n1nc2c(-c3ccc(N4CCN(CCO)CC4)cc3)n[nH]c2cc1=O [Compound 113, 5-(2-fluoro-6-methoxyphenyl)-3-(4-(4-(2-hydroxyethyl)piperazin-1-yl)phenyl)-1H-pyrazolo[4,3-c]pyridazin-6(5H)-one] | 368 | ≤ 50
13 | COc1cc(C#N)cc(F)c1-n1nc2c(-c3ccc(N4CCN(CCO)CC4)cc3)n[nH]c2cc1=O [Compound 114, 3-fluoro-4-(3-(4-(4-(2-hydroxyethyl)piperazin-1-yl)phenyl)-6-oxo-1H-pyrazolo[4,3-c]pyridazin-5(6H)-yl)-5-methoxybenzonitrile] | 309 | ≤ 50
14 | COc1cccc(F)c1-n1nc2c(-c3ccc(N4CCN(CC(C)(C)O)CC4)cc3)n[nH]c2cc1=O [Compound 115, 5-(2-fluoro-6-methoxyphenyl)-3-(4-(4-(2-hydroxyl-2-methylpropyl)piperazin-1-yl)phenyl)-1H-pyrazolo[4,3-c]pyridazin-6(5H)-one] | 542 | ≤ 50
15 | Cc1cccc(F)c1-n1nc2c(-c3ccc(N4CC5CCC(C4)N5CCO)cc3)n[nH]c2cc1=O [Compound 117, 5-(2-fluoro-6-methylphenyl)-3-(4-(8-(2-hydroxyethyl)-3,8-diazabicyclo[3.2.1]octan-3-yl)phenyl)-1H-pyrazolo[4,3-c]pyridazin-6(5H)-one] | 566 | ≤ 50
16 | Cc1cccc(F)c1-n1nc2c(-c3ccc(N4CCN(CCO)CC4)nc3)n[nH]c2cc1=O [Compound 118, 5-(2-fluoro-6-methylphenyl)-3-(6-(4-(2-hydroxyethyl)piperazin-1-yl)pyrid-3-yl)-1H-pyrazolo[4,3-c]pyridazin-6(5H)-one] | 550 | ≤ 50
17 | COCCN1CCN(c2ccc(-c3n[nH]c4cc(=O)n(-c5c(C)cccc5F)nc34)cn2)CC1 [Compound 119, 5-(2-fluoro-6-methylphenyl)-3-(6-(4-(2-methoxyethyl)piperazin-1-yl)pyrid-3-yl)-1H-pyrazolo[4,3-c]pyridazin-6(5H)-one] | 531 | ≤ 50
18 | Cc1cccc(F)c1-n1nc2c(-c3ccc(N4CCN(C)C(CO)C4)cc3)n[nH]c2cc1=O (stereo not shown) [Compound 120, 5-(2-fluoro-6-methylphenyl)-3-(4-(3-(hydroxymethyl)-4-methylpiperazin-1-yl)phenyl)-1H-pyrazolo[4,3-c]pyridazin-6(5H)-one] | 482 | ≤ 50
19 | COc1cccc(F)c1-n1nc2c(-c3ccc(N4CCN(C)C(CO)C4)cc3)n[nH]c2cc1=O (stereo not shown) [Compound 121, 5-(2-fluoro-6-methoxyphenyl)-3-(4-(3-(hydroxymethyl)-4-methylpiperazin-1-yl)phenyl)-1H-pyrazolo[4,3-c]pyridazin-6(5H)-one] | 459 | ≤ 50
20 | COc1cc(C#N)cc(F)c1-n1nc2c(-c3ccc(N4CCN5C(=O)OCC5C4)cc3)n[nH]c2cc1=O (stereo not shown) [Compound 124, 3-fluoro-5-methoxy-4-(6-oxo-3-(4-(3-oxotetrahydro-1H-oxazolo[3,4-a]pyrazin-7(3H)-yl)phenyl)-1H-pyrazolo[4,3-c]pyridazin-5(6H)-yl)benzonitrile] | 570 | ≤ 50
21 | Cc1cccc(F)c1-n1nc2c(-c3ccc(N4CCN(C)C(C(C)(C)O)C4)cc3)n[nH]c2cc1=O (stereo not shown) [Compound 125, 5-(2-fluoro-6-methylphenyl)-3-(4-(3-(2-hydroxylprop-2-yl)-4-methylpiperazin-1-yl)phenyl)-1H-pyrazolo[4,3-c]pyridazin-6(5H)-one] | 216 | ≤ 50
22 | COc1cccc(F)c1-n1nc2c(-c3ccc(N4CCN(C)C(C(C)(C)O)C4)cc3)n[nH]c2cc1=O (stereo not shown) [Compound 126] | 428 | ≤ 50
23 | COc1cccc(F)c1-n1nc2c(-c3ccc(N4CCN(C)C(C(C)(C)OC)C4)cc3)n[nH]c2cc1=O (stereo not shown) [Compound 127, 5-(2-fluoro-6-methoxyphenyl)-3-(4-(3-(2-methoxyprop-2-yl)-4-methylpiperazin-1-yl)phenyl)-1H-pyrazolo[4,3-c]pyridazin-6(5H)-one] | 758 | ≤ 50
